Results taken from PubChem BioAssay (NCI).
Where “and” joins values, the source holds several entries; their conditions need not be identical. Equal entries are not always repeated.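 The compound was tested at five concentrations on cells cultured in 96-well plates, with a 48-hour exposure period. GI50 = concentration required for 50% inhibition of growth. TGI: concentration producing complete growth inhibition.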

Experiments:
Experiment in all cases: growth of human tumour cells (NCI), 48 h
SNB-19 CNS = test system: SNB-19 CNS
HCT-116 colon = test system: HCT-116 colon
HOP-92 NSCLC = test system: HOP-92 NSCLC
RXF 393 renal = test system: RXF 393 renal
HOP-62 NSCLC = test system: HOP-62 NSCLC
TK-10 renal = test system: TK-10 renal
SF-268 CNS = test system: SF-268 CNS
U251 CNS = test system: U251 CNS
OVCAR-4 ovarian = test system: OVCAR-4 ovarian
RPMI-8226 leukemia = test system: RPMI-8226 leukemia

Compound | TGI (SNB-19 CNS) | TGI (HCT-116 colon) | TGI (HOP-92 NSCLC) | TGI (RXF 393 renal) | TGI (HOP-62 NSCLC) | TGI (TK-10 renal) | TGI (SF-268 CNS) | TGI (U251 CNS) | TGI (OVCAR-4 ovarian) | GI50 (SNB-19 CNS) | GI50 (HCT-116 colon) | GI50 (HOP-92 NSCLC) | GI50 (RXF 393 renal) | GI50 (HOP-62 NSCLC) | GI50 (TK-10 renal) | GI50 (SF-268 CNS) | GI50 (U251 CNS) | TGI (RPMI-8226 leukemia) | GI50 (OVCAR-4 ovarian) | GI50 (RPMI-8226 leukemia)
CNCCCNc1c2ccccc2nc2cccc([N+](=O)[O-])c12 | 0.0309 µM and 0.13 µM | 0.017 µM and 0.0108 µM | 0.00423 µM | 0.00217 µM | 0.0129 µM | 0.0327 µM | 0.0166 µM and 0.0211 µM | 0.0519 µM | 0.00543 µM |  |  |  |  |  |  |  |  |  |  | 
CC12OC(C(=O)C13CCC3)C1C(=O)c3ccc4c(ccc5ccccc54)c3C(=O)C12 (stereo not drawn) | 65.7 µM | 24.8 µM | 21.2 µM | 30.3 µM | 53.4 µM | 15 µM | 32.9 µM | 31.9 µM |  | 21.5 µM | 11.4 µM | 5.02 µM | 13.3 µM | 25.2 µM | 4.29 µM | 11.6 µM | 11.5 µM |  |  | 
CC1(C)C(=O)C(=Cc2ccco2)C1=O |  | > 100 µM | > 100 µM |  |  | > 100 µM | > 100 µM | > 100 µM | > 100 µM |  |  |  |  |  |  |  |  | > 100 µM |  | 
COc1cc2c3c(c1OC)C(=O)C=C3N(S(=O)(=O)c1ccc(C)cc1)CC2 | > 100 µM | > 100 µM | > 100 µM |  | > 100 µM | > 100 µM | > 100 µM | > 100 µM | > 100 µM |  |  |  |  |  |  |  |  | > 100 µM |  | 
Clc1ccc(OCc2nnc3n2N=C(c2ccccc2)CS3)c(Cl)c1 | > 100 µM | > 100 µM | > 100 µM | > 100 µM |  | > 100 µM | > 100 µM | > 100 µM | > 100 µM |  |  |  |  |  |  |  |  |  |  | 
C/C(O)=C(\N=O)C(=O)NCc1ccccc1 | > 100 µM | > 100 µM | > 100 µM | > 100 µM | > 100 µM | > 100 µM | > 100 µM | > 100 µM |  |  |  |  |  |  |  |  |  | > 100 µM |  | 
CC1=C(C(=O)Nc2ccccc2)C(c2cc(Cl)cc(Cl)c2)C(C(=O)Nc2ccccc2)=C(C)N1 | 27.5 µM | 21.6 µM |  | 26.3 µM | 31.1 µM | 33.6 µM | 15.3 µM | 12.9 µM | 19.2 µM |  |  |  |  |  |  |  |  | 25.2 µM |  | 
CCC[CH2][Sn]([CH2]CCC)([O]C(=O)c1cccc(F)c1F)[O]C(=O)c1cccc(F)c1F | 2.8 µM | 2.43 µM | 2.57 µM | 1.22 µM | 4.5 µM | 3.11 µM | 2.15 µM | 1.93 µM | 3.31 µM | 1.48 µM | 1.2 µM | 1.3 µM | 0.321 µM | 2.94 µM | 1.72 µM | 0.838 µM | 0.675 µM |  | 1.86 µM | 
C=Cc1c(C)c2cc3[nH]c(cc4nc(cc5nc(cc1[nH]2)C(C)=C5CCC(=O)N(CC)CC)C(CCC(=O)N(CC)CC)=C4C)c(C)c3C=C |  | > 100 µM | > 100 µM | > 100 µM | > 100 µM | > 100 µM |  | > 100 µM | > 100 µM |  |  |  |  |  |  |  |  |  |  | 
C[C@H](NC(=O)c1c(C(F)F)nn(C)c1Oc1cccc(C(F)(F)F)c1)c1ccc(C(=O)O)cc1 | > 100 µM | > 100 µM | > 100 µM |  | > 100 µM | > 100 µM | > 100 µM | > 100 µM | > 100 µM | > 100 µM | > 100 µM | 6.94 µM |  | > 100 µM | > 100 µM | > 100 µM | > 100 µM | > 100 µM | > 100 µM | > 100 µM
COC(=O)CC(C(C(C)=O)C(=O)OCc1ccccc1)N1C(=O)OC(c2ccccc2)C1c1ccccc1 (stereo not drawn) | 91.7 µM and > 100 µM | > 100 µM | > 100 µM | > 100 µM | > 100 µM | > 100 µM | > 100 µM | > 100 µM |  | 10.5 µM and > 100 µM |  | 84.5 µM and 39.8 µM | 29.1 µM and 84.9 µM |  |  |  |  | > 100 µM |  | 
COc1cc2nc(-c3cccc4cccnc34)nc(NC3CCN(Cc4ccccc4)CC3)c2cc1OC | 3.16 µM | 0.338 µM | 3.36 µM |  | 3.05 µM | 2.98 µM | 2.98 µM | 2.55 µM | 2.71 µM | 1.34 µM | 0.158 µM | 1.59 µM |  | 1.23 µM | 1.52 µM | 1.14 µM | 1.05 µM | 4.54 µM | 1.11 µM | 1.6 µM
COc1cc(NC(C)CCCNC(C)C)c2ncccc2c1OC (stereo not drawn) | > 100 µM | > 100 µM |  | > 100 µM | > 100 µM |  | > 100 µM | > 100 µM | 53.3 µM | > 100 µM | 27.8 µM |  | > 100 µM | > 100 µM |  | > 100 µM | > 100 µM |  | 4.2 µM | 
Cc1cc2c(cc1CO)N1Cc3cc(C)c(CO)cc3N(C2)C1 | > 100 µM | > 100 µM |  | > 100 µM | > 100 µM | > 100 µM | > 100 µM | > 100 µM | > 100 µM |  |  |  |  |  |  |  |  | > 100 µM |  | 
CCCCN1C(=O)/C(=c2\sc3n(c2=O)C2C(NN=3)N(CC)C(=O)N2CC)c2ccccc21 (stereo not drawn) | 28.1 µM |  | 4.58 µM | 2.23 µM | 4.95 µM | 6.26 µM | 4.71 µM | 3.39 µM | 4.83 µM | 1.61 µM |  | 1.07 µM | 0.365 µM | 1.21 µM | 1.82 µM | 0.959 µM | 0.773 µM |  | 0.909 µM | 
CCN(CC)c1ccc(/C=N/NC(=O)CSc2nc3ccccc3c(=O)n2Cc2ccc(S(N)(=O)=O)cc2)c(O)c1 | > 100 µM | > 100 µM |  | > 100 µM | > 100 µM | > 100 µM | > 100 µM | > 100 µM | > 100 µM | 2.1 µM | 0.363 µM |  | 2.5 µM | 0.961 µM | 1.66 µM | 0.766 µM | 0.51 µM | 4.85 µM | 0.311 µM | 0.521 µM
c1cc[c]([Sn]([O]c2cccc3cccnc23)([O]c2cccc3cccnc23)[c]2ccccc2)cc1 |  | 0.393 µM |  |  | 17.9 µM | 2.73 µM | 1.5 µM | 2.6 µM | 0.406 µM |  | 0.199 µM |  |  | 5.26 µM | 1.31 µM | 0.41 µM | 0.938 µM |  | 0.214 µM | 
COc1ccc(-c2nc(N)c(C#N)c3c2CCOc2c-3ccc3ccccc23)cc1 | 91 µM | > 100 µM | 37.9 µM | 31.1 µM | 49.7 µM | 53.2 µM | 39.8 µM | 34.4 µM | 9.38 µM | 24.2 µM | 54.3 µM | 11.8 µM | 1.6 µM | 20.8 µM | 21.5 µM | 11.1 µM | 14 µM |  | 1.43 µM | 
Cc1ccc(O)c(NC2=C(Cl)C(=O)N(Cc3ccccc3)C2=O)c1 | > 100 µM | > 100 µM |  | 39.3 µM | 72.5 µM | > 100 µM | 47.1 µM | 43.3 µM | > 100 µM | 46 µM | 31.2 µM |  | 15 µM | 25.4 µM | 38.3 µM | 18.8 µM | 19.8 µM | 36.6 µM | 31.7 µM | 7.7 µM
CCN(CC)c1nc(NC2CCCCC2)c2nc(N(CC)CC)nc(NC3CCCCC3)c2n1 | > 100 µM | > 100 µM | > 100 µM | 99.8 µM | > 100 µM | > 100 µM | > 100 µM | > 100 µM |  |  |  |  |  |  |  |  |  |  |  | 
Cc1cn2c(/C=N/N=C(N)N)c(-c3ccncc3)nc2s1 | 31.3 µM | 22.5 µM | 26.9 µM | 29.8 µM | 28.1 µM | 28.6 µM | 30.7 µM | 31.6 µM | 32 µM | 16.4 µM | 10.7 µM | 13.4 µM | 14.9 µM | 14.9 µM | 15 µM | 16.7 µM | 17.8 µM |  | 13.2 µM | 
CC(C)(C)c1nc(-c2cccc(NS(=O)(=O)c3c(F)cccc3F)c2F)c(-c2ccnc(N)n2)s1 | > 100 µM | > 100 µM | > 100 µM |  | > 100 µM | > 100 µM | > 100 µM | > 100 µM | > 100 µM | 71.5 µM | 20.4 µM | 35.5 µM |  | 47.2 µM | 31.8 µM | 51 µM | 45.5 µM | 97 µM | 50.5 µM | 24.1 µM
COc1ccc(-c2n[nH]nc2-c2cc(OC)c3c(c2)OCO3)cc1 | > 100 µM |  | 22.2 µM |  | > 68.1 µM | > 100 µM | > 62.3 µM | 15.6 µM | > 100 µM | 0.0441 µM | 0.017 µM | 0.16 µM |  | < 0.0135 µM | 15.7 µM | 0.087 µM | 0.0359 µM | 32.5 µM | 1.25 µM | 0.0319 µM
COc1cc(Nc2ncnc(Nc3ccc4c(n3)NC(=O)C(C)(C)O4)n2)cc(OC)c1OC | > 100 µM | > 100 µM | 1.71 µM | 0.622 µM | > 66.5 µM | > 100 µM | > 100 µM | > 100 µM | > 100 µM | 9.78 µM | 3.95 µM | 0.243 µM | 0.148 µM | 0.555 µM | 0.457 µM | 0.544 µM | 1.5 µM |  |  | 
